In patent publication US20120071471A1, “NOVEL BENZOXAZINONE DERIVATIVES USEFUL FOR THE TREATMENT OF CNS DISORDERS” (NEUROSEARCH A/S, priority 2009, published 2012):

Legend:
[1] = De Marchi et al., Journal of Pharmaceutical Sciences 1971 60 (11); cited from earlier work
[2] = tested on: female NMRI mice; assay: 6 Hz corneal stimulation psychomotor seizure model (anticonvulsant properties); assay type: in vivo; conditions: Mus musculus, 32 mA, 3 s corneal stimulation, N=8/group, read-out: ED50 (dose that would give a 50% protection from seizures)
Experimental: The evaluation of the anticonvulsant properties was carried out in female NMRI mice (20-25 g, Taconic, Denmark). The mice were housed in groups (8 per cage according to weight) with food and water available ad libitum The environment was temperature (20±2° C.) and humidity (55±15%) controlled, and consisted of a 12:12 h light-dark cycle (lights on 06:00 h). The experiments were performed according to the Danish Committee for Experiments on Animals. Psychomotor seizures were induced via corneal stimulation (6 Hz, 0.2 ms rectangular pulses at 32 mA for 3 s) using a Grass S48 stimulator, constant current unit (CCU1) and isolation unit (SIU5), all driven by a stimulus generator (Master-8, AMPI, Israel).
The pads of the corneal stimulator were soaked in 0.9% saline. The mice were restrained during corneal stimulation and released immediately after and observed for the presence or absence of seizure activity.
The duration of any of these seizure variables is 10-75 seconds. In the presence of any of the seizure variables the mice was labelled 0% protection, and if none of the above, the mice was labelled 100% protection.
For screening purposes, the test compound was tested at 1 dose at 1 time-point. In the case of protection of 3 or more out of 8 mice, the compound were further evaluated in dose response (N=8/group). […]

melting point [°C]	SMILES	anticonvulsant activity [1]	ED50 [2] [mg/kg]
	NC(=O)CN1C(=O)OCc2ccccc21 [2-(2-oxo-4H-benzo[d][1,3]oxazin-1-yl)-acetamide]	biologically inactive	
253.4 to 254.3	NC(=O)CN1C(=O)OCc2cc(Br)ccc21 [Compound 1, 2-(6-bromo-2-oxo-4H-3,1-benzoxazin-1-yl)acetamide]		13
